Experiments:
[1] = Pharmacokinetics and tumor targeting of Pt in tumor tissue of pancreatic cancer orthotopic transplantation model mice; assay type: in vivo, mouse; conditions: 8 mg/kg
Description: Mouse pancreatic cancer cells transfected with luciferase reporter genes were used to prepare mouse pancreatic cancer orthotopic transplantation models. The tumor volume of the mice were determined by injecting […] into tail veins, and the mice with similar tumor volume were selected for evaluation of systemic PK and tumor-targeting property. […] Pharmacokinetic parameters were calculated using PK Solver 2.0.

[2] = test system: PANC-1 subcutaneous transplantation tumor; test: Anti-tumor effect in PANC-1 subcutaneous transplantation tumor model; assay type: in vivo, BALB/c Nude mouse; conditions: 4 mg/kg cisplatin (effective dose), once a week, 4 times
Description: The human pancreatic cancer cell strain PANC-1 was cultured in a DMEM high-glucose medium containing 10% FBS. Before being used, the cells were digested with pancreatin and centrifuged for 3 min at 800 r·min^−1 to remove the supernatant. The cells were resuspended in a serum-free DMEM medium, matrigel was added at a ratio of 1:1, and the number of the cells was adjusted to 5×10^6/mL. The cell suspension was inoculated subcutaneously to the right thigh at 100 μL/mouse. […] The tumor-bearing mice were randomly divided into 5 groups with 6 mice in each. […] The drugs were administered via tail vein injection. The administration was performed once a week, 4 times in total. The long (l) and short (r) diameters of the tumors were measured with a vernier caliper every other day to calculate tumor volume. All mice were sacrificed on day 11 after the administration cycle was completed, and they were dissected to get the tumors, which were then weighed. The tumor volume calculation formula was as follows: V=(l×r^2)/2.

[3] = test system: MIA PaCa-2 pancreas orthotopic transplantation tumor; test: Kaplan-Meier survival in MIA PaCa-2 pancreas orthotopic transplantation model; conditions: once every 7 days, three times
Description: Pancreas of BALB/c nude mice was transplanted orthotopically with Mia paca-2 cells (reporter gene: luciferase) to prepare pancreatic cancer transplantation in situ models, and then the mice were randomly divided into 4 groups with 6 mice in each, and administered with drugs 10 days after the models were established. […] The drugs were administered once every 7 days, three times in total. The mice were weighed every other day, and the survival state of the mice was recorded. Kaplan-Meier survival curves were drawn to examine the influence of different drug treatments on the survival state of the mice.

N.N.[Cl][Pt][Cl] [cisplatin, cis-diamminedichloroplatinum]
ID% (drug amount at a tumor site x 100%/injected drug amount) [1]: less than 5% | body weight of the mice during the administration process [2]: remarkably decreased | inhibition of PANC-1 subcutaneous transplantation tumor (tumor volume, tumor weight) ([2]; tail vein): no significant inhibition effect | body weight of the mice in the whole treatment process [3]: significantly reduced

— patent US20220280469A1, “PHARMACEUTICAL COMPOUND AND PREPARATION METHOD THEREFOR AND USE THEREOF” (priority 2019, published 2022)
